According to PMC4357444, “Accumulation of Squalene in a Microalga Chlamydomonas reinhardtii by Genetic Modification of Squalene Synthase and Squalene Epoxidase Genes” (PLoS ONE, 2015):

Molecular target: T1, CrSQS (Chlamydomonas reinhardtii, UniProt A0A2K3DXC5)
T1 construct: gene CHLRE_03g175250v5; Met-1 to Asp-397, C-terminal 64 residues (transmembrane region) removed; C-terminal 6xHis (pET-21b), E. coli BL21(DE3), TALON purified, 46 kDa
Test: radiolabel TLC assay of squalene formation
Format: biochemical
Details: 25 uM (1-14C) FPP, 2.5 mM NADPH, 5 mM MgCl2 or 2 mM MnCl2, pH 7.4, 30 °C; labelled compound; 2.5 mM NADPH (with glucose-6-phosphate dehydrogenase regeneration) against no NADPH

T1 sequence (A0A2K3DXC5 entry or part of it): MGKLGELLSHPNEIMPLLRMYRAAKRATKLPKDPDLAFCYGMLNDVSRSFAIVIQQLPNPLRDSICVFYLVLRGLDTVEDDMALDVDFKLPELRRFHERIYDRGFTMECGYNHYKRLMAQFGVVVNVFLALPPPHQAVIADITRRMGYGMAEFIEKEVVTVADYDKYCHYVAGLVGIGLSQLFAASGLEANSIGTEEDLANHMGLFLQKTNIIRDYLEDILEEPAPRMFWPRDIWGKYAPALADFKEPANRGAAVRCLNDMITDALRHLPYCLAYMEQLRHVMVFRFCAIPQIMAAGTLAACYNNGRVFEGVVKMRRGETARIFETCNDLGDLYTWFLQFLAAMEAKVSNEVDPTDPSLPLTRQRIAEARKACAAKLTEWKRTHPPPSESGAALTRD

NC(=O)C1=CN([C@@H]2O[C@H](COP(=O)(O)OP(=O)(O)OC[C@H]3O[C@@H](n4cnc5c(N)ncnc54)[C@H](OP(=O)(O)O)[C@@H]3O)[C@@H](O)[C@H]2O)C=CC1 [NADPH]
radiolabel TLC assay of squalene formation: When NADPH was removed, radiolabeled squalene was not detected in any sample
